Test results from US12522594B2, “2-heteroaryl-3-oxo-2,3-dihydropyridazine-4-carboxamides for the treatment of cancer” (Deutsches Krebsforschungszentrum, priority 2017, dated 2026).

What was measured:
[1] = biological target: T1, AHR (Homo sapiens, UniProt P35869); test: In vitro assay 1: antagonism in human cell line (transactivation assay, U87 cells prestimulated with kynurenic acid, DRE firefly luciferase reporter); type: cell-based; design: host or cells: U87 glioblastoma cells, stably transfected with DRE firefly luciferase and renilla reporter constructs; conditions: 150 uM kynurenic acid, 20 hours, read-out: Assay 1: AHR-luc Hum Antagonism IC50
T1 sequence (P35869 11-848): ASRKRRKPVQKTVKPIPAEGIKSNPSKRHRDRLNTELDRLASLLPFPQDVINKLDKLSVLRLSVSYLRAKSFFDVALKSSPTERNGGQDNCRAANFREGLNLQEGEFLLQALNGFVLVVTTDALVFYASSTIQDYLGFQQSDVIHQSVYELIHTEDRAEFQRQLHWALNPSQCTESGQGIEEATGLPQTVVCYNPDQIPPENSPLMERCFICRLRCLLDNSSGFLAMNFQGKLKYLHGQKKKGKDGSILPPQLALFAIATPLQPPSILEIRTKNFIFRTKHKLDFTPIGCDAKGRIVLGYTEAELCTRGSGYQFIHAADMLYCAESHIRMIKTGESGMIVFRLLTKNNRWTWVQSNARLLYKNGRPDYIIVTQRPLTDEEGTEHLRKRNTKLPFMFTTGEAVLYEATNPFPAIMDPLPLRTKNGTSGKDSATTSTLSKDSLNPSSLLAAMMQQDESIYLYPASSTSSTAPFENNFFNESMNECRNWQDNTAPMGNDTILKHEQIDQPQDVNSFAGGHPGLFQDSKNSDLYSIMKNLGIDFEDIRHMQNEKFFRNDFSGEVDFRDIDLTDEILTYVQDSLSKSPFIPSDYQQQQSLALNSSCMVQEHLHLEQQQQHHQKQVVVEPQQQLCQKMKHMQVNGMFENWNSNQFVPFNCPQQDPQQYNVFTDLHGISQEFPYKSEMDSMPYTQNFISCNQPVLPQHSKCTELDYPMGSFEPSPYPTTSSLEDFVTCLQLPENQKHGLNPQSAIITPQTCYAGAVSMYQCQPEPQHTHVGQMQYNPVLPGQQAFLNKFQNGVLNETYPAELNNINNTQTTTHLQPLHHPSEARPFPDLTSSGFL
Method in brief: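 U87 glioblastoma cells with endogenous AHR, stably carrying a DRE-driven firefly luciferase reporter and a constitutive renilla reporter. Cells prestimulated with the AHR agonist kynurenic acid before compound addition; data normalized to positive and negative controls.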

[2] = biological target: T1, AHR; test: In vitro assay 2: agonism in human cell line (transactivation assay, U87 cells, DRE firefly luciferase reporter); type: cell-based; design: host or cells: U87 glioblastoma cells, stably transfected with DRE firefly luciferase and renilla reporter constructs; conditions: no kynurenic acid, 20 hours, read-out: Assay 2: AHR-luc Hum Agonism IC50
Method in brief: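 U87 glioblastoma cells with endogenous AHR, stably carrying DRE-driven firefly luciferase and constitutive renilla reporters. 300 uM kynurenic acid served as positive activation control; data normalized to positive and negative controls.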

Row | Structure (SMILES) | IC50 [1] | IC50 [2]
1 | CC(C)(O)CNC(=O)c1cc(-c2ccc(Cl)cc2)nn(-c2cnoc2)c1=O [Example 269, 6-(4-Chlorophenyl)-N-(2-hydroxy-2-methylpropyl)-2-(1,2-oxazol-4-yl)-3-oxo-2,3-dihydropyridazine-4-carboxamide] | 0.0617 µM | > 20 µM
2 | Cn1cc(-n2nc(-c3ccc(Cl)cc3)cc(C(=O)NC[C@H](O)CF)c2=O)cn1 [Example 270, 6-(4-Chlorophenyl)-N-[(2S)-3-fluoro-2-hydroxypropyl]-2-(1-methyl-1H-pyrazol-4-yl)-3-oxo-2,3-dihydropyridazine-4-carboxamide] | 0.0645 µM | > 20 µM
3 | O=C(N[C@H](CO)C(F)(F)F)c1cc(-c2ccc(Cl)cc2)nn(-c2cncnc2)c1=O [Example 271, 6-(4-Chlorophenyl)-3-oxo-2-(pyrimidin-5-yl)-N-[(2R)-1,1,1-trifluoro-3-hydroxypropan-2-yl]-2,3-dihydropyridazine-4-carboxamide] | 0.072 µM | > 20 µM
4 | C[C@@H](CO)NC(=O)c1cc(-c2ccc(Cl)cc2)nn(-c2cnn(C(F)F)c2)c1=O [Example 272, 6-(4-Chlorophenyl)-2-[1-(difluoromethyl)-1H-pyrazol-4-yl]-N-[(2S)-1-hydroxypropan-2-yl]-3-oxo-2,3-dihydropyridazine-4-carboxamide] | 0.0911 µM | > 20 µM
5 | O=C(N[C@H](CO)C1CC1)c1cc(-c2ccc(Cl)cc2)nn(-c2cncnc2)c1=O [Example 273, 6-(4-Chlorophenyl)-N-[(1S)-1-cyclopropyl-2-hydroxyethyl]-3-oxo-2-(pyrimidin-5-yl)-2,3-dihydropyridazine-4-carboxamide] | 0.101 µM | > 20 µM
6 | COC(=O)[C@@H](CO)NC(=O)c1cc(-c2ccc(Cl)cc2)nn(-c2cccnc2)c1=O [Example 274, Methyl N-{[6-(4-chlorophenyl)-3-oxo-2-(pyridin-3-yl)-2,3-dihydropyridazine-4-yl]carbonyl}-D-serinate] | 0.111 µM | > 20 µM
7 | Cn1cc(-n2nc(-c3ccc(CF)cc3)cc(C(=O)N[C@H](CO)C(F)(F)F)c2=O)cn1 [Example 275, 6-[4-(Fluoromethyl)phenyl]-2-(1-methyl-1H-pyrazol-4-yl)-3-oxo-N-[(2R)-1,1,1-trifluoro-3-hydroxypropan-2-yl]-2,3-dihydropyridazine-4-carboxamide] | 0.13 µM | > 20 µM
8 | C[C@H](NC(=O)c1cc(-c2ccc(Cl)cc2)nn(-c2cn[nH]c2)c1=O)C(C)(C)O [Example 276, 6-(4-Chlorophenyl)-N-[(2S)-3-hydroxy-3-methylbutan-2-yl]-3-oxo-2-(1H-pyrazol-4-yl)-2,3-dihydropyridazine-4-carboxamide] | 0.131 µM | > 20 µM
9 | CC(C)(O)CNC(=O)c1cc(-c2ccc(Cl)cc2)nn(-c2cncnc2)c1=O [Example 277, 6-(4-Chlorophenyl)-N-(2-hydroxy-2-methylpropyl)-3-oxo-2-(pyrimidin-5-yl)-2,3-dihydropyridazine-4-carboxamide] | 0.139 µM | > 20 µM
10 | CC(C)(O)CNC(=O)c1cc(-c2ccc(Cl)cc2)nn(-c2cnn(C(F)F)c2)c1=O [Example 278, 6-(4-Chlorophenyl)-2-[1-(difluoromethyl)-1H-pyrazol-4-yl]-N-(2-hydroxy-2-methylpropyl)-3-oxo-2,3-dihydropyridazine-4-carboxamide] | 0.14 µM | > 20 µM
11 | C[C@H](CO)NC(=O)c1cc(-c2ccc(Cl)cc2)nn(-c2cncnc2)c1=O [Example 279, 6-(4-Chlorophenyl)-N-[(2R)-1-hydroxypropan-2-yl]-3-oxo-2-(pyrimidin-5-yl)-2,3-dihydropyridazine-4-carboxamide] | 0.168 µM | > 20 µM
12 | O=C(NC[C@H](O)C(F)(F)F)c1cc(-c2ccc(CF)cc2)nn(-c2cccnc2)c1=O [Example 280, 6-[4-(Fluoromethyl)phenyl]-3-oxo-2-(pyridin-3-yl)-N-[(2S)-3,3,3-trifluoro-2-hydroxypropyl]-2,3-dihydropyridazine-4-carboxamide] | 0.178 µM | > 20 µM
13 | O=C(N[C@H](CO)C(F)(F)F)c1cc(-c2ccc(CF)cc2)nn(-c2cccnc2)c1=O [Example 282, 6-[4-(Fluoromethyl)phenyl]-3-oxo-2-(pyridin-3-yl)-N-[(2R)-1,1,1-trifluoro-3-hydroxypropan-2-yl]-2,3-dihydropyridazine-4-carboxamide] | 0.304 µM | > 20 µM
14 | Cn1cc(-n2nc(-c3ccc(CF)cc3)cc(C(=O)NC[C@H](O)C(F)(F)F)c2=O)cn1 [Example 283, 6-[4-(Fluoromethyl)phenyl]-2-(1-methyl-1H-pyrazol-4-yl)-3-oxo-N-[(2S)-3,3,3-trifluoro-2-hydroxypropyl]-2,3-dihydropyridazine-4-carboxamide] | 0.43 µM | > 20 µM
15 | C[C@H](NC(=O)c1cc(-c2ccc(CF)cc2)nn(-c2cnn(C)c2)c1=O)C(C)(C)O [Example 284, 6-[4-(Fluoromethyl)phenyl]-N-[(2S)-3-hydroxy-3-methylbutan-2-yl]-2-(1-methyl-1H-pyrazol-4-yl)-3-oxo-2,3-dihydropyridazine-4-carboxamide] | 0.571 µM | > 20 µM
16 | C[C@@H](CO)NC(=O)c1cc(-c2ccc(CF)cc2)nn(-c2cccnc2)c1=O [Example 285, 6-[4-(Fluoromethyl)phenyl]-N-[(2S)-1-hydroxypropan-2-yl]-3-oxo-2-(pyridin-3-yl)-2,3-dihydropyridazine-4-carboxamide] | 0.602 µM | > 20 µM
17 | CC(C)(O)CNC(=O)c1cc(-c2ccc(CF)cc2)nn(-c2cccnc2)c1=O [Example 286, 6-[4-(Fluoromethyl)phenyl]-N-(2-hydroxy-2-methylpropyl)-3-oxo-2-(pyridin-3-yl)-2,3-dihydropyridazine-4-carboxamide] | 0.672 µM | > 20 µM
18 | C[C@@H](CO)NC(=O)c1cc(-c2ccc(CF)cc2)nn(-c2cnn(C)c2)c1=O [Example 287, 6-[4-(Fluoromethyl)phenyl]-N-[(2S)-1-hydroxypropan-2-yl]-2-(1-methyl-1H-pyrazol-4-yl)-3-oxo-2,3-dihydropyridazine-4-carboxamide] | 0.721 µM | > 20 µM
19 | C[C@H](NC(=O)c1cc(-c2ccc(CF)cc2)nn(-c2cccnc2)c1=O)C(C)(C)O [Example 288, 6-[4-(Fluoromethyl)phenyl]-N-[(2S)-3-hydroxy-3-methylbutan-2-yl]-3-oxo-2-(pyridin-3-yl)-2,3-dihydropyridazine-4-carboxamide] | 0.82 µM | > 20 µM
20 | Cn1cc(-n2nc(-c3ccc(Cl)cc3)cc(C(=O)N[C@H](CO)C(N)=O)c2=O)cn1 [Example 289, N-[(2R)-1-Amino-3-hydroxy-1-oxopropan-2-yl]-6-(4-chlorophenyl)-2-(1-methyl-1H-pyrazol-4-yl)-3-oxo-2,3-dihydropyridazine-4-carboxamide] | 0.875 µM | > 20 µM
21 | O=C(NC[C@@H](O)C(F)(F)F)c1cc(-c2ccc(OC(F)(F)F)cc2)nn(-c2cccnc2)c1=O [Example 293, 3-Oxo-2-(pyridin-3-yl)-N-[(2R)-3,3,3-trifluoro-2-hydroxypropyl]-6-[4-(trifluoromethoxy)phenyl]-2,3-dihydropyridazine-4-carboxamide] | 0.0822 µM | > 20 µM
22 | C[C@@H](NC(=O)c1cc(-c2ccc(OC(F)(F)F)cc2)nn(-c2cccnc2)c1=O)C(C)(C)O [Example 294, N-[(2R)-3-Hydroxy-3-methylbutan-2-yl]-3-oxo-2-(pyridin-3-yl)-6-[4-(trifluoromethoxy)phenyl]-2,3-dihydropyridazine-4-carboxamide] | 0.0498 µM | > 20 µM
23 | O=C(NC[C@H](O)CF)c1cc(-c2ccc(OC(F)(F)F)cc2)nn(-c2cccnc2)c1=O [Example 296, N-[(2S)-3-Fluoro-2-hydroxypropyl]-3-oxo-2-(pyridin-3-yl)-6-[4-(trifluoromethoxy)phenyl]-2,3-dihydropyridazine-4-carboxamide] | 0.118 µM | > 20 µM
24 | C[C@@H](NC(=O)c1cc(-c2ccc(Cl)cc2)nn(-c2cccnc2)c1=O)C(C)(C)O [Example 302, 6-(4-Chlorophenyl)-N-[(2R)-3-hydroxy-3-methylbutan-2-yl]-3-oxo-2-(pyridin-3-yl)-2,3-dihydropyridazine-4-carboxamide] | 0.0815 µM | > 20 µM
